# Source: patent US5292737A, “N,N'-bis(sulfonamido)-2-amino-4-iminonaphthalen-1-ones and N,N'-bis(amido)-2-amino-4-iminonaphthalen-1-ones” (Sphinx Pharmaceuticals Corporation, priority 1992, dated 1994)
# Biological target: T1, PKC isoenzyme ζ (Homo sapiens, UniProt Q05513)
# T1 construct: made in house; host or cells: baculovirus-insect cell expression system
# T1 sequence (Q05513 1-592): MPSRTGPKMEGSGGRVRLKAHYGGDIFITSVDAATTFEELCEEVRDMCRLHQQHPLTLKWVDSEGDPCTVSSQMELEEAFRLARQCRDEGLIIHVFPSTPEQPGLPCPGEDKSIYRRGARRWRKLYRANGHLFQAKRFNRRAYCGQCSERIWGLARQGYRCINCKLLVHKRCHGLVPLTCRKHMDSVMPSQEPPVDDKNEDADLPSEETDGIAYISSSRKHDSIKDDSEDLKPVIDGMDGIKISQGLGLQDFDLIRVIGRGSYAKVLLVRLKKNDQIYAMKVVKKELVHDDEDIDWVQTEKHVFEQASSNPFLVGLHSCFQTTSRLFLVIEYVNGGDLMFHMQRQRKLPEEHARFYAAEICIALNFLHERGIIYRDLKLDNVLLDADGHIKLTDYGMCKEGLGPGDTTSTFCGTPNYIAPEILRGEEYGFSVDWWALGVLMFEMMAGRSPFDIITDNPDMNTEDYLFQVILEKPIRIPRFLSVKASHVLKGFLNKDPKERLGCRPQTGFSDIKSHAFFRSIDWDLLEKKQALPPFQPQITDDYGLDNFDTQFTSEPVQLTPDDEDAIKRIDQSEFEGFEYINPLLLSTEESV
# Assay: Protein kinase C inhibition assay, PKC isoenzyme ζ
# Format: biochemical
# Conditions: IC50 PKC .zeta.
# Experimental: A protein kinase C (PKC) assay is designed to duplicate the in vivo conditions required for protein kinase C function. Therefore, pH, salt and cofactor concentrations are similar to physiologic levels. Either lysine rich histone H1 (H1) or Myelin basic protein (Mbp) are used in the assay as the phosphorylation acceptor-protein because they are readily available and serve as good substrates for protein kinase C. Enzyme was prepared from baculovirus-insect cell expression systems.
# In the screening assay, phosphatidylserine (PS) and DAG were co-sonicated to form unilamellar and multilamellar vesicles. The concentration of lipids in the assay were suboptimal to maximize the detection potential of the assay for inhibitors or activators. Potential effector compounds were added to the assay in dimethylsulfoxide at four concentrations to give final inhibitor concentrations of 1, 10, 50, and 150 μM, respectively.
# The assay was started with the addition of enzyme and stopped after 10 min by the addition of 25% trichloroacetic acid (TCA) and 1.0 mg/ml bovine serum albumin (BSA). The radioactive histone product was retained and washed on glass fiber filters that allow the unreacted P-ATP to pass through. The amount of phosphorylation was determined by measuring radioactivity with a scintillation counter. Controls were included in every assay to measure background activity in the absence of enzyme, activity in the absence of lipids, and the maximum enzyme activity with saturating levels of the activator lipids.
# Results of the protein kinase C assay are shown in Table 4 in columns labeled α, βII, γ, δ, ε, and .zeta. which represent various PKC isoenzymes. Results are show as IC50, which is the concentration of test compound needed to inhibit 50% of the protein kinase C activity in controls.
row,SMILES,IC50
1,O=C1C(Nc2ccc(S(=O)(=O)NCCNc3ccc([N+](=O)[O-])cn3)cc2)=CC(=Nc2ccc(S(=O)(=O)NCCNc3ccc([N+](=O)[O-])cn3)cc2)c2ccccc21 [Compound 3ac],> 150 µM

# Same assay, conditions: read-out: IC50 PKC .zeta.
row,IC50,SMILES
1,28 µM,COc1cc(NS(=O)(=O)c2ccc(N=C3C=C(Nc4ccc(S(=O)(=O)Nc5cc(OC)nc(OC)n5)cc4)C(=O)c4ccccc43)cc2)nc(OC)n1 [Compound 6g]
2,35 µM,Cc1ccnc(NS(=O)(=O)c2ccc(N=C3C=C(Nc4ccc(S(=O)(=O)Nc5nccc(C)n5)cc4)C(=O)c4ccccc43)cc2)n1 [Compound 6f]
3,9 µM,O=C1C(Nc2ccc(S(=O)(=O)Nc3cnc4ccccc4n3)cc2)=CC(=Nc2ccc(S(=O)(=O)Nc3cnc4ccccc4n3)cc2)c2ccccc21 [Compound 6m]
4,132 µM,Cc1cc(C)nc(NS(=O)(=O)c2ccc(N=C3C=C(Nc4ccc(S(=O)(=O)Nc5nc(C)cc(C)n5)cc4)C(=O)c4ccccc43)cc2)n1 [Compound 6c]
5,9 µM,O=C1C(Nc2ccc(S(=O)(=O)Nc3ccc(Cl)nn3)cc2)=CC(=Nc2ccc(S(=O)(=O)Nc3ccc(Cl)nn3)cc2)c2ccccc21 [Compound 6l]
6,49 µM,COc1ccc(NS(=O)(=O)c2ccc(N=C3C=C(Nc4ccc(S(=O)(=O)Nc5ccc(OC)nn5)cc4)C(=O)c4ccccc43)cc2)nn1 [Compound 6j]
7,47 µM,COc1cnc(NS(=O)(=O)c2ccc(N=C3C=C(Nc4ccc(S(=O)(=O)Nc5ncc(OC)cn5)cc4)C(=O)c4ccccc43)cc2)nc1 [Compound 6h]
8,> 150 µM,Cc1cc(C)nc(NS(=O)(=O)c2cc(N=C3C=C(Nc4ccc(C)c(S(=O)(=O)Nc5cc(C)cc(C)n5)c4)C(=O)c4ccccc43)ccc2C)c1 [Compound 6ag]
9,20 µM,Cc1nnc(NS(=O)(=O)c2ccc(N=C3C=C(Nc4ccc(S(=O)(=O)Nc5nnc(C)s5)cc4)C(=O)c4ccccc43)cc2)s1 [Compound 6e]

# The next lines start with the compound.
row,SMILES,IC50
1,COc1cc(NS(=O)(=O)c2ccc(N=C3C=C(Nc4ccc(S(=O)(=O)Nc5cc(OC)cc(OC)c5)cc4)C(=O)c4ccccc43)cc2)cc(OC)c1 [Compound 3af],> 150 µM
2,Cc1cc(C)nc(NC(=O)c2ccc(N=C3C=C(Nc4ccc(C(=O)Nc5nc(C)cc(C)n5)cc4)C(=O)c4ccccc43)cc2)n1 [Compound 3ai],> 150 µM
3,Cc1cc(C)nc(NC(=O)c2ccc(N=C3C=C(Nc4ccc(C(=O)Nc5cc(C)cc(C)n5)cc4)C(=O)c4ccccc43)cc2)c1 [Compound 3ah],> 150 µM
4,Cc1cc(C)nc(NS(=O)(=O)c2cccc(N=C3C=C(Nc4cccc(S(=O)(=O)Nc5cc(C)cc(C)n5)c4)C(=O)c4ccccc43)c2)c1 [Compound 3ae],> 150 µM
5,O=C1C(Nc2ccc(S(=O)(=O)NCc3ccccn3)cc2)=CC(=Nc2ccc(S(=O)(=O)NCc3ccccn3)cc2)c2ccccc21 [Compound 3n],> 150 µM
6,O=C1C(Nc2ccc(S(=O)(=O)Nc3ccccn3)cc2)=CC(=Nc2ccc(S(=O)(=O)Nc3ccccn3)cc2)c2ccccc21 [Compound 3i],> 150 µM
7,O=C1C(Nc2ccc(S(=O)(=O)Nc3cnc4ccccc4n3)cc2)=CC(=Nc2ccc(S(=O)(=O)Nc3cnc4ccccc4n3)cc2)c2ccccc21 [Compound 3m],28 µM
8,COc1ccc(NS(=O)(=O)c2ccc(N=C3C=C(Nc4ccc(S(=O)(=O)Nc5ccc(OC)nn5)cc4)C(=O)c4ccccc43)cc2)nn1 [Compound 3j],> 150 µM
9,Cc1cc(C)nc(NS(=O)(=O)c2cc(N=C3C=C(Nc4ccc(C)c(S(=O)(=O)Nc5cc(C)cc(C)n5)c4)C(=O)c4ccccc43)ccc2C)c1 [Compound 3ag],28 µM
10,O=C1C(Nc2ccc(S(=O)(=O)Nc3ccc(Cl)nn3)cc2)=CC(=Nc2ccc(S(=O)(=O)Nc3ccc(Cl)nn3)cc2)c2ccccc21 [Compound 3l],28 µM
